Experimental data published in patent US20250332173A1, “COMPOUNDS AND METHODS FOR MODULATING NUCLEIC ACID SPLICING” (REMIX THERAPEUTICS INC., priority 2021, published 2025).
Where two headings read alike, the source gives them in different places.

How the values were obtained:
Assay type in all cases: cell-based, human
[1] = system: Target C; test: HiBiT protein abundance assay, Target C (Promega Nano-Glo HiBiT Lytic Detection System, knock-in K562 cell line); settings: Homo sapiens, K562, 24 h, HiBiT K562 cell line, 24 hours, top dose 10 μM; read-out: Effect on protein abundance, Target C (IC50 category)
How it was run: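 HiBiT knock-in K562 cells (10,000/well) were treated for 24 h at 37 °C with a 10-point 3-fold dilution series, top final concentration 10 μM, DMSO ≤0.25%. Lytic HiBiT luminescence was read, normalized to unmodified K562 and DMSO-treated controls, and IC50 was interpolated from a four-parameter logistic fit.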

[2] = system: Target C; test: RT-qPCR splicing assay panel, Target C canonical junction (CJ) mRNA; settings: Homo sapiens
How it was run: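 A673 cells (DMEM/10% FBS) or K562 cells (IMDM/10% FBS) were treated 24 h at 37° C. with 11-point 3-fold dilutions (top 10 uM, ≤0.25% DMSO). Canonical-junction mRNA was quantified in lysates by RT-qPCR, normalized to GAPDH, GUSB or PPIA.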

[3] = system: HTT; test: HiBiT protein abundance assay, HTT HiBiT K562 cell line; settings: 24 hours, top dose 10 μM
How it was run: (§1)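 Endogenous targets in K562 knock-in lines carried a HiBiT tag and were treated for 24 h at 37 °C with 10-point 3-fold dilutions (top 10 μM final, DMSO ≤0.25%). Abundance was read as lytic Nano-Glo HiBiT luminescence. IC50 came from a four-parameter logistic fit of normalized response.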

[4] = system: MYB; test: HiBiT protein abundance assay, MYB HiBiT K562 cell line; settings: 24 hours, top dose 10 μM
How it was run: as §1

[5] = canonical junction qPCR panel, Table 5, read-out: Target C (decrease in CJ mRNA levels, IC50)
[6] = HiBiT K562 cell line, read-out: Effect on protein abundance, HTT (IC50 category)
[7] = HiBiT K562 cell line, read-out: Effect on protein abundance, MYB (IC50 category)
[8] = Table 5 panel, canonical junction qPCR, compound concentration having 50% response in CJ decrease, read-out: Target C IC50 (decrease in CJ mRNA levels)
[9] = HiBiT lytic detection, modified K562 cells, read-out: Effect on protein abundance, HTT (IC50)
[10] = HiBiT lytic detection, modified K562 cells, read-out: Effect on protein abundance, MYB (IC50)

IC50 [1] | IC50 [2, 5] | IC50 [3, 6] | IC50 [4, 7] | IC50 [2, 8] | IC50 [3, 9] | IC50 [4, 10] | SMILES
> 10000 nM | > 10000 nM | 1000 to 10000 nM | 1000 to 10000 nM | – | – | – | Cc1cn2cc(-c3cc(F)c4c(=O)n([C@@H]5CNC[C@H]5F)ccc4c3)cc(F)c2n1 [Compound 1456]
100 to 1000 nM | – | 100 to 1000 nM | < 100 nM | 100 to 1000 nM | – | – | Cc1cn2cc(-c3cc4ccn(C5CCNCC5)c(=O)c4cn3)cc(F)c2n1 [Compound 1196]
1000 to 10000 nM | 1000 to 10000 nM | 1000 to 10000 nM | < 100 nM | – | – | – | Cc1c(O)c(-c2ncc3c(=O)n(C45CCC(N)(CC4)C5)ccc3n2)cc2cn(C)nc12 [Compound 1428]
100 to 1000 nM | 100 to 1000 nM | < 100 nM | < 100 nM | – | – | – | Cc1c(O)c(-c2ccc3c(=O)n(C4CCNCC4)cc(C)c3n2)cc2cn(C)nc12 [Compound 1284]
< 100 nM | < 100 nM | < 100 nM | < 100 nM | – | – | – | Cc1cn(C2CCNCC2)c(=O)c2ccc(-c3cc4cn(C)nc4c(F)c3O)nc12 [Compound 1285]
100 to 1000 nM | 100 to 1000 nM | 100 to 1000 nM | 100 to 1000 nM | – | – | – | Cn1cc2cc(-c3ccc4c(=O)n([C@@H]5CCNC5)ccc4n3)c(O)c(F)c2n1 [Compound 1452, 2-(7-fluoro-6-hydroxy-2-methyl-indazol-5-yl)-6-[(3R)-pyrrolidin-3-yl]-1,6-naphthyridin-5-one]
100 to 1000 nM | – | 100 to 1000 nM | 100 to 1000 nM | 100 to 1000 nM | – | – | Cc1cn2cc(-c3ncc4c(=O)n(C5CCNC5)ccc4n3)cc(C#N)c2n1 (stereo not drawn) [Compound 1221]
– | 100 to 1000 nM | – | – | – | 100 to 1000 nM | 100 to 1000 nM | Cn1cc2cc(-c3ccc4c(=O)n(C5CCNC6(CC6)C5)ncc4n3)c(O)cc2n1 (stereo not drawn) [Compound 1306]
> 10000 nM | – | 1000 to 10000 nM | 100 to 1000 nM | > 10000 nM | – | – | Cc1cc(-c2cc3ccn(C4CCN(C)CC4)c(=O)c3cn2)cc2cn(C)nc12 [Compound 1206, 6-(2,7-dimethyl-2H-indazol-5-yl)-2-(1-methylpiperidin-4-yl)-2,7-naphthyridin-1(2H)-one]
1000 to 10000 nM | 1000 to 10000 nM | 100 to 1000 nM | 100 to 1000 nM | – | – | – | Cc1c(O)c(-c2ncc3c(=O)n(C4CCC(N)CC4)ccc3n2)cc2cn(C)nc12 (stereo not drawn) [Compound 1300, 6-((1s,4s)-4-aminocyclohexyl)-2-(6-hydroxy-2,7-dimethyl-2H-indazol-5-yl)pyrido[4,3-d]pyrimidin-5(6H)-one]
> 10000 nM | – | > 10000 nM | 1000 to 10000 nM | > 10000 nM | – | – | Cc1cn2cc(-c3ncc4c(=O)n(C5CCNC5)ccc4n3)c(O)c(C)c2n1 (stereo not drawn) [Compound 1227]
1000 to 10000 nM | 1000 to 10000 nM | 100 to 1000 nM | 100 to 1000 nM | – | – | – | Cc1c(O)c(-c2ncc3c(=O)n([C@@H]4CCN[C@H](C)C4)ccc3n2)cc2cn(C)nc12 [Compound 1434, 2-(6-hydroxy-2,7-dimethyl-indazol-5-yl)-6-(2-methyl-4-piperidyl)pyrido[4,3-d]pyrimidin-5-one]
1000 to 10000 nM | – | > 10000 nM | 100 to 1000 nM | > 10000 nM | – | – | Cc1cn2cc(-c3ncc4c(=O)n(C5CCNC5)ccc4n3)cc(F)c2n1 (stereo not drawn) [Compound 1215]
< 100 nM | – | 1000 to 10000 nM | 1000 to 10000 nM | 100 to 1000 nM | – | – | Cc1c(O)c(-c2ncc3c(=O)n(C4CCNCC4)cc(C)c3n2)cc2cn(C)nc12 [Compound 1191]
1000 to 10000 nM | 1000 to 10000 nM | 100 to 1000 nM | 100 to 1000 nM | – | – | – | Cc1c(O)c(-c2ncc3c(=O)n(C4C[C@@H](C)N[C@H](C)C4)ccc3n2)cc2cn(C)nc12 (stereo partly drawn) [Compound 1454, 6-[(2R,6R)-2,6-dimethyl-4-piperidyl]-2-(6-hydroxy-2,7-dimethyl-indazol-5-yl)pyrido[4,3-d]pyrimidin-5-one]
100 to 1000 nM | 1000 to 10000 nM | 100 to 1000 nM | < 100 nM | – | – | – | Cc1c(O)c(-c2ncc3c(=O)n(C4C[C@H](C)N[C@@H](C)C4)ccc3n2)cc2cn(C)nc12 (stereo partly drawn) [Compound 1455, 6-[(2S,6S)-2,6-dimethyl-4-piperidyl]-2-(6-hydroxy-2,7-dimethyl-indazol-5-yl)pyrido[4,3-d]pyrimidin-5-one]
100 to 1000 nM | 100 to 1000 nM | < 100 nM | < 100 nM | – | – | – | Cn1cc2nc(-c3ccc4c(=O)n(C5CCNCC5)ccc4n3)c(O)cc2n1 [Compound 1296]
100 to 1000 nM | – | 100 to 1000 nM | 100 to 1000 nM | 100 to 1000 nM | – | – | Cc1cn2nc(-c3cc4ccn(C5CCNCC5)c(=O)c4cn3)cc(C)c2n1 [Compound 1198, 6-(2,8-dimethylimidazo[1,2-b]pyridazin-6-yl)-2-(piperidin-4-yl)-2,7-naphthyridin-1(2H)-one]

IC50 [1] | IC50 [2, 5] | IC50 [3, 6] | IC50 [4, 7] | IC50 [2, 8] | IC50 [3, 9] | IC50 [4, 10] | SMILES
1000 to 10000 nM | 1000 to 10000 nM | 1000 to 10000 nM | 100 to 1000 nM | – | – | – | Cc1c(O)c(-c2ncc3c(=O)n([C@@H]4CC5CC4CN5)ccc3n2)cc2cn(C)nc12 (stereo in doubt) [Compound 1443, 6-[(1R,4R,5R)-2-azabicyclo[2.2.1]heptan-5-yl]-2-(6-hydroxy-2,7-dimethyl-indazol-5-yl)pyrido[4,3-d]pyrimidin-5-one]
100 to 1000 nM | – | 100 to 1000 nM | 100 to 1000 nM | 100 to 1000 nM | – | – | Cc1cn2cc(-c3cc4ccn(C5CCNCC5)c(=O)c4cn3)nc(C)c2n1 [Compound 1205, 6-(2,8-dimethylimidazo[1,2-a]pyrazin-6-yl)-2-(piperidin-4-yl)-2,7-naphthyridin-1(2H)-one]
> 10000 nM | – | > 10000 nM | 1000 to 10000 nM | > 10000 nM | – | – | Cc1cn2cc(-c3cc4ccn(C5CCNC5)c(=O)c4cn3)cc(C#N)c2n1 (stereo not drawn) [Compound 1214]
> 10000 nM | > 10000 nM | > 10000 nM | > 10000 nM | – | – | – | Cc1cn2cc(-c3ccc4c(=O)n(C5CCNCC5)ccc4n3)nc(C)c2n1 [Compound 1238, 2-(2,8-dimethylimidazo[1,2-a]pyrazin-6-yl)-6-(piperidin-4-yl)-1,6-naphthyridin-5(6H)-one]
1000 to 10000 nM | – | > 10000 nM | 100 to 1000 nM | > 10000 nM | – | – | Cc1cn2cc(-c3ncc4c(=O)n([C@@H]5CCNC5)ccc4n3)cc(F)c2n1 [Compound 1228]
> 10000 nM | > 10000 nM | 1000 to 10000 nM | 100 to 1000 nM | – | – | – | Cc1c(O)c(-c2ncc3c(=O)n(C4CCNC4)ccc3n2)cc2cn(C)nc12 (stereo in doubt) [Compound 1439, (6R)-2-(6-hydroxy-2,7-dimethyl-indazol-5-yl)-6-pyrrolidin-3-yl-pyrido[4,3-d]pyrimidin-5-one]
1000 to 10000 nM | – | 1000 to 10000 nM | 100 to 1000 nM | 1000 to 10000 nM | – | – | Cn1cc2cc(-c3ncc4c(=O)n(C5CCNC5)ccc4n3)c(O)c(F)c2n1 (stereo not drawn) [Compound 1223]
> 10000 nM | – | > 10000 nM | > 10000 nM | > 10000 nM | – | – | Cn1cc2ccc(-n3cnc4cc(NC5CCNCC5)ccc4c3=O)cc2n1 [Compound 204]
> 10000 nM | > 10000 nM | > 10000 nM | > 10000 nM | – | – | – | Cc1cn2cc(-c3ccc4c(=O)n(C5CCNCC5)ccc4n3)c(O)cc2n1 [Compound 1240]
100 to 1000 nM | – | < 100 nM | < 100 nM | 100 to 1000 nM | – | – | Cn1cc2cc(-c3ncc4c(=O)n(C5CCNCC5)ccc4n3)cc(F)c2n1 [Compound 1212, 2-(7-fluoro-2-methyl-2H-indazol-5-yl)-6-(piperidin-4-yl)pyrido[4,3-d]pyrimidin-5(6H)-one]
– | – | 100 to 1000 nM | 100 to 1000 nM | 100 to 1000 nM | – | – | Cc1cn2cc(-c3ncc4c(=O)n([C@H]5CCNC5)ccc4n3)cc(F)c2n1 [Compound 1220]
– | 1000 to 10000 nM | – | – | – | 1000 to 10000 nM | 1000 to 10000 nM | CCN1CCC(n2ncc3nc(-c4cc5cn(C)nc5cc4O)ccc3c2=O)CC1 [Compound 1310]
– | 1000 to 10000 nM | – | – | – | 1000 to 10000 nM | 1000 to 10000 nM | CN1CCC(n2ncc3nc(-c4cc5cn(C)nc5cc4O)ccc3c2=O)CC1 [Compound 1307]
– | 100 to 1000 nM | – | – | – | 100 to 1000 nM | 100 to 1000 nM | Cc1cn2nc(-c3ccc4c(=O)n(C5CCN(CCF)CC5)ncc4n3)cc(C)c2n1 [Compound 1309]
– | 100 to 1000 nM | – | – | – | < 100 nM | 100 to 1000 nM | CCN1CCC(n2ncc3nc(-c4cc(C)c5nc(C)cn5n4)ccc3c2=O)CC1 [Compound 1308]
– | 100 to 1000 nM | – | – | – | 100 to 1000 nM | 100 to 1000 nM | Cc1cn2nc(-c3ccc4c(=O)n(C5CCN(C)CC5)ncc4n3)cc(C)c2n1 [Compound 1311]
– | 100 to 1000 nM | – | – | – | < 100 nM | < 100 nM | Cc1cn2nc(-c3ccc4c(=O)n(C5CCNCC5)ncc4n3)cc(C)c2n1 [Compound 1247]
